Values of other authors, collected in US20010027177A1, “Pharmaceutical composition containing a small or medium size peptide” (priority 2000, published 2001).
Each block holds one molecule with its values, some of them ahead of it.

Legend:
[1] = solutions free from preservative; polystyrene, polypropylene and glass tubes; 24 hours at room temperature
[2] = adsorption to glass bottles and plastic tubing used in giving sets
[3] = tested on: nasal ciliar motility

loss of active principle because of adsorption by the walls [1]: lose about the half of active principle
Molecule: NC(=O)CC[C@@H]1NC(=O)[C@H](Cc2ccccc2)NC(=O)[C@H](Cc2ccc(O)cc2)NC(=O)CCSSC[C@@H](C(=O)N2CCC[C@H]2C(=O)N[C@H](CCCN=C(N)N)C(=O)NCC(N)=O)NC(=O)[C@H](CC(N)=O)NC1=O [desmopressin, 1-deamino-8-D-arginin-vasopressin]

Molecule: insulin: peptide drug cited for adsorption to glass bottles and plastic tubing
losses of activity/potency because of adsorption [2]: ≤ 78.8%

Molecule: benzalkonium chloride
effect on nasal ciliar motility [3]: irreversible suppression of the nasal ciliar motility
